Data as given in patent publication US20250120958A1, “Treatment of GM2 Gangliosidosis” (Azafaros B.V., priority 2022, published 2025).
“Also recorded” adds a separate entry of the source. Like-named read-outs stand apart in the source and are kept apart here.

What was measured:
[1] = test system: GFAP (Glial fibrillary acidic protein); experiment: GFAP immunofluorescence in brain sections; format: in vivo, mouse; settings: for GFAP staining, treated vs vehicle: midsections
Text: (§1) Brain samples were collected, rinsed with saline and blotted dry. Samples were fixed in 4% PFA for immunohistochemical analyses; frozen and kept for gene expression and molecular biology analyses; and used frozen for LC-MS/MS analysis.
GFAP (Glial fibrillary acidic protein) a class-III intermediate filament protein, is a cell-specific marker that, during the development of the central nervous system, distinguishes astrocytes from other glial cells. Intermediate filaments form networks that provide support and strength to cells. Several molecules of glial fibrillary acidic protein bind together to form the type of intermediate filament found in astroglial cells. Astroglial cells support and nourish cells in the brain and spinal cord. If brain or spinal cord cells are injured through trauma or disease, astroglial cells react by rapidly producing more glial fibrillary acidic protein.

[2] = test system: Sandhoff mouse model (Hexb (−/−)); experiment: Rotarod (RR) test in Sandhoff mice; format: in vivo; settings: 16 weeks, 0.5-6 mg/kg/day
Experimental: In the ROT, all animals were on the day before the first testing, habituated to the device for 5 min using a continuous rotation speed of 4-40 rotations per minute (rpm). For the subsequent experiments, no prior habituation was conducted. In the actual testing procedure, the test was conducted over 5 min with an accelerating rotation of 4-40 rpm. Time was measured until the animals fell from the rod. Up to 5 animals could be tested simultaneously.
Behavioral assessments, including open field tests (OFT, ActiMot, TSE systems) and rotarod (RR, IITC Life Sciences), were also performed. The OFT assessed motor skills by placing a mouse into a square box with high walls for 5 minutes to record several parameters, including distance travelled (centimetres) and resting time in zone (seconds). Motor coordination of mice was assessed using a RR apparatus as per previously published protocol (Osmon, Vyas et al. 2018). Briefly, mice were placed on moving cylinders that accelerated from 4 to 40 rotations per minute (rpm) over 5 minutes. Each mouse was allowed three trials on the RR with a minimum of 10 minutes for rest in-between assessments. The highest number achieved was recorded for each of the following parameters: latency to fall, end rotations per minute and distance travelled.

[3] = Dynamic vapour sorption (DVS); format: physicochemical
Text: In addition, the behaviour of the sample of the Form 3 crystalline form of compound of formula (I) obtained by equilibration with ethyl acetate was investigated under variable water vapour pressures (DVS measurement). At the highest relative humidity of 95% the sample absorbed about 1.2% of water that was released when the relative humidity was returned to the 50% RH. The amount of absorbed water is small, and the water sorption is reversible. […] For Form 2, at high relative humidity the sample absorbed about 18% of water; however, most of the absorbed water was released when the relative humidity was returned to the 50% RH.
Dynamic vapour sorption (DVS) measurements were performed with an SPS11-100n “Sorptions Prufsystem” from ProUmid (formerly “Projekt Messtechnik”), August-Nagel-Str. 23, 89079 Ulm (Germany). About 5 mg to 20 mg of sample was put into an aluminum sample pan. Humidity change rates of 5% per hour were used.

[4] = test system: Sandhoff mouse model (Hexb (−/−)); experiment: Survival study in Sandhoff mouse model; format: in vivo; settings: Hexb (−/−) mice
Text: (strain: B6; 129S4-Hexbtm1Rlp/J). The mouse line was maintained by crossing homozygous −/− males with heterozygous females (generating litters with 50%−/− and 50%+/−) under specific pathogen-free conditions. All mice were housed in individual, ventilated cages (IVCs) with 12-h light/dark cycles with food and water ad libitum. Young-adult mice of the same genetic C57BL/6 background were from Jackson Laboratories. Breeding of Hexb mutants will target needs of the “Long-term” cohorts first, followed by the “16-week” biomarker study.
Cohort 1: There were a total of 6 dose groups and 2 vehicle groups using both Hexb+/− and Hexb−/− animals. […] Dosing occurred daily from day 30 to day 170, unless the animal was prematurely euthanized per protocol.
A subsequent study to explore lower doses was also performed (in the same manner as in Example 2) in which doses of 0.02, 0.06, 0.2 and 0.5 mg/kg/day were used. […] It is unclear why the 0.06 mg/kg/day had less survival as formulations were checked and confirmed accurate dosing (internal data).

[5] = Brain pharmacokinetics after 16 weeks of once daily administration (LC-MS/MS); format: in vivo, mouse
Experimental: as §1
Unless otherwise stated, the methodology and sample collection were performed as in Example 2. […] Twenty-four hours after the last dose the animals were euthanized at varying time-points and AZ-3102 was measured by LC-MS/MS. […] However, exposure (AUC0-24) proportionality was well conserved between doses: 6 versus 3 (1.8-fold); 3 and 1.5 (2.0-fold) and 1.5 and 0.5 (2.4-fold). […] The reduced clearance in the brain versus plasma has also been observed in prior studies with rats and dogs (internal data). […] The plasma concentration at all doses was approximately 1 ng/mL after 24 h and in the brain the concentration was greater than 20 ng/g tissue.

[6] = Plasma pharmacokinetics after 16 weeks of once daily administration (LC-MS/MS); format: in vivo, mouse
Experimental: At the end of the defined treatment period, mice were humanely euthanized by transcardial perfusion with Ringer solution after C02 asphyxiation. […]. Before perfusion, blood samples were collected via cardiac puncture into K2EDTA tubes and stored on wet ice. Whole blood was processed to plasma by centrifugation (3000 g for 10 minutes at 5° C.) within 30 min of collection and stored at −75° C.
Unless otherwise stated, the methodology and sample collection were performed as in Example 2.

Hexb (+/−) mice = experiment: Lifespan of heterozygous Hexb (+/−) mice under treatment; settings: 3 mg/kg/day
Experimental: For all cohorts, drug and/or vehicle (control) were administered by gastric gavage once a day, between 8.00-12.00 am, from the age of 30 days until euthanasia.
In addition, animals heterozygous for the Hexb gene (+/−) were treated with vehicle or 3 mg/kg/day. Dosing continued until the animals reached their humane endpoints determined in a blinded fashion by the animal care staff and primarily consisted of the inability to reach sternal recumbency after 10 seconds and, if achieved, was additionally verified by the senior laboratory technician prior to the commencement of the animal being euthanized.

OC[C@H]1[C@@H](O)[C@H](O)[C@@H](O)CN1CCCCCOCc1ccc(-c2ccccc2)c(F)c1 [AZ-3102]
GFAP immunofluorescence, Mean ([1]; caudal section of the brain, Het (Hexb+/−), Female): 508.99 | GFAP immunofluorescence, Mean ([1]; caudal section of the brain, Het (Hexb+/−), Male): 425.10 | GFAP immunofluorescence, Mean ([1]; caudal section of the brain, KO (Hexb−/−), Female): 1656.84 | GFAP immunofluorescence, Mean ([1]; caudal section of the brain, KO (Hexb−/−), Male): 1762.82 | GFAP immunofluorescence, Mean ([1]; midsection of the brain, Het (Hexb+/−), Female): 298.81 | GFAP immunofluorescence, Mean ([1]; midsection of the brain, Het (Hexb+/−), Male): 395.99 | GFAP immunofluorescence, Mean ([1]; midsection of the brain, KO (Hexb−/−), Female): 747.75 | GFAP immunofluorescence, Mean ([1]; midsection of the brain, KO (Hexb−/−), Male): 866.38 | GFAP staining, treated vs vehicle ([1]; Hexb−/− females): statistical decrease | GFAP staining, treated vs vehicle ([1]; Hexb−/− males): trend to having a decrease | RR assessments, effect of treatment vs vehicle [2]: significant at all dose levels; also recorded: significantly improved | hygroscopicity ([3]; DVS): non-hygroscopic or substantially non-hygroscopic | water absorbed (DVS) ([3]; highest relative humidity of 95%, reversible): about 1.2% | median survival ([4]; 0.02 mg/kg/day): 120 days | median survival ([4]; 0.06 mg/kg/day): 116 days | median survival ([4]; 0.2 mg/kg/day): 133 days | median survival ([4]; 0.5 mg/kg/day): 138 days | increase of average median survival ([4]; 0.5-6 mg/kg/day oral gavage daily, vs vehicle (115 days)): 26 days | minimal effective dose on survival ([4]; once daily gavage): 0.2 mg/kg/day | increase in survival / life expectancy ([4]; treated vs vehicle/untreated): 22% | concentration profile in brain ([5]; 24 h period, most dose groups): sustained with very little decrease | concentration at 24 h ([5]; Hexb (−/−) and Hexb (+/−), mouse, brain, oral, all doses): > 20 ng/g | Cmax difference between lowest and highest dose ([6]; 6 vs 0.5 mg/kg/day): approximately 7 fold | Cmax ([6]; Hexb (−/−) (Sandhoff mice), mouse, oral, plasma, 0.5 to 6 mg/kg/day, steady state, read-out: Cmax, range over doses): 0.1 to 0.674 µg/mL | AUC(0-t) ([6]; Hexb (−/−) (Sandhoff mice), mouse, oral, plasma, 0.5 to 6 mg/kg/day, steady state, read-out: mean AUC0-24, range over doses): 0.417 to 3.61 µg·h/mL | AUC(0-t) ([6]; Hexb (−/−) (Sandhoff model), mouse, plasma, po, Sand A, Hexb (−/−), 6 mg/kg/day, 16 weeks once daily, read-out: AUC0-24): 3.61 µg·h/mL | Cmax ([6]; Hexb (−/−) (Sandhoff model), mouse, plasma, po, Sand A, Hexb (−/−), 6 mg/kg/day, 16 weeks once daily, read-out: Cmax): 0.674 µg/mL | AUC(0-t) ([6]; Hexb (−/−) (Sandhoff model), mouse, plasma, po, Sand B, Hexb (−/−), 3 mg/kg/day, 16 weeks once daily, read-out: AUC0-24): 1.98 µg·h/mL | Cmax ([6]; Hexb (−/−) (Sandhoff model), mouse, plasma, po, Sand B, Hexb (−/−), 3 mg/kg/day, 16 weeks once daily, read-out: Cmax): 0.446 µg/mL | AUC(0-t) ([6]; Hexb (−/−) (Sandhoff model), mouse, plasma, po, Sand D, Hexb (−/−), 1.5 mg/kg/day, 16 weeks once daily, read-out: AUC0-24): 0.987 µg·h/mL | Cmax ([6]; Hexb (−/−) (Sandhoff model), mouse, plasma, po, Sand D, Hexb (−/−), 1.5 mg/kg/day, 16 weeks once daily, read-out: Cmax): 0.159 µg/mL | AUC(0-t) ([6]; Hexb (−/−) (Sandhoff model), mouse, plasma, po, Sand E, Hexb (−/−), 0.5 mg/kg/day, 16 weeks once daily, read-out: AUC0-24): 0.417 µg·h/mL | Cmax ([6]; Hexb (−/−) (Sandhoff model), mouse, plasma, po, Sand E, Hexb (−/−), 0.5 mg/kg/day, 16 weeks once daily, read-out: Cmax): 0.1 µg/mL | concentration at 24 h ([6]; Hexb (−/−) and Hexb (+/−), mouse, plasma, oral, all doses): ~0.001 µg/mL | Cmax/D ([6]; Sand E, Hexb (−/−), 0.5 mg/kg/day): 200 (ng/mL)/(mg/kg) | AUC(0-t) ([6]; mouse, plasma, po, Het B, Hexb (+/−), 3 mg/kg/day, 16 weeks once daily, read-out: AUC0-24): 1.96 µg·h/mL | Cmax ([6]; mouse, plasma, po, Het B, Hexb (+/−), 3 mg/kg/day, 16 weeks once daily, read-out: Cmax): 0.37 µg/mL | effect on lifespan compared to vehicle (Hexb (+/−) mice): no effect on lifespan
